Laboratory results as given in ChEMBL document CHEMBL1165915, “Dual Src and Abl inhibitors target wild type Abl and the AblT315I Imatinib-resistant mutant with different mechanisms” (Bioorg Med Chem, 2010).

Columns and labels:
[1] = species: Homo sapiens; experiment: Selectivity ratio of Ki for human recombinant ABL T315I mutant to Ki for human recombinant ABL using abtide peptide as substrate
[2] = species: Homo sapiens; experiment: Selectivity ratio of Ki for human recombinant ABL T315I mutant to Ki for human recombinant ABL using ATP as substrate

Ratio Ki [1]	Ratio Ki [2]	SMILES
40	40	NC(=O)c1cccc(-c2cc(Nc3ccc(OC(F)(F)F)cc3)ncn2)c1
20	20	Cc1ccc(NC(=O)c2ccc(CN3CCN(C)CC3)cc2)cc1Nc1nccc(-c2cccnc2)n1
